Experimental data from patent US11311568B2, “Therapeutic pharmaceutical composition for cancer including miRNA” (Purmx Therapeutics, Inc., priority 2017, dated 2022).

Legend:
[1] = test system: uterine sarcoma cell strain MES-SA; assay: Cell growth inhibition, cell count after transfection; assay type: cell-based; conditions: final concentration 10 nM, four days after transfection, FIG. 8
Protocol: (§1) Among the above four miRNAs, miR-3140-3p which had particularly high cell growth inhibition effect was transfected in each of malignant pleural mesothelioma cell strains (MSTO-211H and EHMES-10), uterine sarcoma cell strain (MES-SA), and osteosarcoma cell strain (U2-OS), and cell proliferation was observed. […] Transfection was carried out with the following protocol.
(§2) 1: To a 35 mm dish were added 500 μL of serum free medium (SFM) and 5 μL of RNAiMAX (Invitrogen).
(§3) 2: To the solution from 1 was added 1 μL each of miR-Control or miR-3140-3p, miR-22-3p, and miR-34a-5p (stock conc. 20 μM) (final concentration 10 nM).
(§4) 3: This was incubated at room temperature for 20 minutes.
(§5) 4: 1.5 mL of a cell suspension diluted to 6.7×10^4 cells/mL was added to the 35 mm dish.
(§6) 5: This was incubated at 37° C. under 5% CO2 condition.
(§7) 6: The cells were counted four days after transfection.

[2] = test system: malignant pleural mesothelioma cell strain EHMES-10; assay: as above; assay type: cell-based; conditions: EHMES-10, final concentration 10 nM, four days after transfection, FIG. 7
Protocol: as §1, §2, §3, §4, §5, §6, §7

[3] = test system: osteosarcoma cell strain U2-OS; assay: as above; assay type: cell-based; conditions: final concentration 10 nM, four days after transfection, FIG. 9
Protocol: as §1, §2, §3, §4, §5, §6, §7

[4] = test system: malignant pleural mesothelioma cell strain MSTO-211H; assay: as above; assay type: cell-based; conditions: final concentration 10 nM, four days after transfection, FIG. 6
Protocol: as §1, §2, §3, §4, §5, §6, §7

[5] = test system: malignant pleural mesothelioma cells EHMES-10; assay: Antitumor effect in vivo, subcutaneous transplantation of EHMES-10 cells; design: species or system SCID mouse; conditions: SCID mice, EHMES-10 subcutaneous, 13 administrations
Protocol: Malignant pleural mesothelioma cells EHMES-10 cells were used.
(§8) 1: The cells on the dish were washed twice with PBS (-).
(§9) 2: The cells were detached with trypsin.
(§10) 3: This was suspended in a medium, and cells were counted.
(§11) 4: Centrifugation at a condition of 1000 rpm for 3 min was performed to pellet down.
(§12) 5: The cells were resuspended in PBS (-) in order to obtain 2.0×10^7 cells/mL.
(§13) Six weeks-old C-B-17/Icr-scid/scid Jcl (SCID mouse) were used as mice. SCID mice were subcutaneously administered 100 μL of the prepared cell suspension, and the cells were allowed to settle.
(§14) Negative control which is the control sequence and miR-3140-3p which is the miRNA of the present invention were employed. A6K (from 3D Matrix) was employed as the nucleic acid delivery reagent. The administration of miRNA to mice was carried out with the following protocol.
(§15) 1: 100 μM of the nucleic acid (miRNA) was diluted with 10% saline and sterilized water in order to obtain 71.4 μM.
(§16) 2: 1% A6K solution was sonicated for 5 minutes before use.
3: The diluted nucleic acid and the 1% A6K solution were mixed at a proportion of 1:1 to give the administration nucleic acid.
4: SCID mice were subcutaneously administered (tumor site) 50 μL each of the administration nucleic acid.
1: From two days after transplantation, the nucleic acid was administered every one or two days. […]

[6] = test system: malignant pleural mesothelioma cells MSTO-211H; assay: Antitumor effect in vivo, subcutaneous transplantation of MSTO-211H cells; design: species or system SCID mouse; conditions: SCID mice, MSTO-211H subcutaneous, miRNA with A6K at tumor site, 13 administrations, 34 days after transplantation, FIG. 13
Protocol: In order to verify the antitumor effect of the miRNA of the present invention in vivo, experiments was performed with laboratory animals transplanted with malignant pleural mesothelioma cells.
Malignant pleural mesothelioma cells MSTO-211H cells were used.
as §8, §9, §10, §11, §12, §13, §14, §15, §16
3: The diluted nucleic acid and the 1% A6K solution were mixed at a proportion of 1:1 to give the administration nucleic acid. […]

[7] = test system: large intestine cancer cell strain SW480; assay: Cell growth inhibition, cell count after transfection; assay type: cell-based; conditions: SW480, final concentration 10.0 nM, seven days after transfection, FIG. 12
Protocol: (§17) miR-3140-3p was transfected into large intestine cancer cell strains (SW620, SW480, and HT29), and cell proliferation was observed. Transfection was carried out with the following protocol.
as §2
(§18) 2: To the solution from 1 was added 12.5 μL each of miR-Control or miR-3140-3p, miR-22-3p, and miR-34a-5p (stock conc. 2 μM) (final concentration 10.0 nM).
as §4, §5, §6
(§19) 6: The cells were counted seven days after transfection.
(§20) Setting the number of control introduction cells as 100%, the survival rate of cells in which miR-3140-3p was introduced was shown in %.

[8] = test system: large intestine cancer cell strain SW620; assay: as above; assay type: cell-based; conditions: SW620, final concentration 10.0 nM, seven days after transfection, FIG. 12
Protocol: as §17, §2, §18, §4, §5, §6, §19, §20

[9] = test system: large intestine cancer cell strain HT29; assay: as above; assay type: cell-based; conditions: HT29, final concentration 10.0 nM, seven days after transfection, FIG. 12
Protocol: as §17, §2, §18, §4, §5, §6, §19, §20

Substance: miR-3140-3p: Mature-miRNA, AGCUUUUGGGAAUUCAGGUAGU (SEQ ID NO. 2) (listed as RNA, chemistry not given here; listed as Homo sapiens)
- cell growth inhibition effect (cell count) [1]: extremely high cell growth inhibition effect compared to prior art miR-22-3p and miR-34a-5p
- cell growth inhibition effect (cell count) [2]: extremely high cell growth inhibition effect compared to prior art miR-22-3p and miR-34a-5p
- cell growth inhibition effect (cell count) [3]: extremely high cell growth inhibition effect compared to prior art miR-22-3p and miR-34a-5p
- cell growth inhibition effect (cell count) [4]: extremely high cell growth inhibition effect compared to prior art miR-22-3p and miR-34a-5p
- tumor weight at endpoint compared to the control group ([5]; 33 days after transplantation, FIG. 16): a similar result
- expansion of the tumor (luciferin imaging) compared to the control group ([5]; miRNA with A6K at tumor site, imaging at 12, 19, 26, 33 days, FIGS. 14-15): expansion of the tumor was suppressed
- tumor weight at endpoint compared to the control group [6]: significantly lower
- cell growth inhibition effect (survival rate of cells, control = 100%) [7]: extremely high cell growth inhibition effect
- cell growth inhibition effect (survival rate of cells, control = 100%) [8]: extremely high cell growth inhibition effect
- cell growth inhibition effect (survival rate of cells, control = 100%) [9]: extremely high cell growth inhibition effect
